According to ChEMBL document CHEMBL3885861, “Open TG-GATES”:

Species on record: Rattus norvegicus
Assay: Open TG-GATES - Regimen: Single
Format: toxicity, organism-based, Sprague-Dawley
Parameters: regimen Single, gender Male, age 6 weeks
Details: in vivo, po, route gavage; for TC / TP / gamma-GTP / ALP / ALT / AST / CRE / DBIL / GLC / IP / K / LDH / Na / PL / RALB / TBIL / TG: tissue Plasma; for APTT / Bas / Eos / Fbg / Ht / Lym / MCH / MCHC / MCV / Mono / Neu / PT / RBC / Ret / WBC / Hb / Plat: tissue Blood; for KIDNEY_L / KIDNEY_R / KIDNEY_TOTAL: tissue Kidney; for LIVER: tissue Liver
[1] = 0 mg/kg, 24 h, dose level Control

Work on CC(C)Cc1ccc(C(C)C(=O)O)cc1 (centres undefined) [IBUPROFEN] yielded a TC [1] of 79.4 mg/dL, a TP [1] of 5.5 g/dL and a gamma-GTP [1] of 1.2 IU/L. The TERMINAL_BW (60 mg/kg, 3 h, dose level Low) was 204.2 g, the APTT (60 mg/kg, 3 h, dose level Low) was 21.7 s and the Bas (60 mg/kg, 3 h, dose level Low) was 0%. The Eos (60 mg/kg, 3 h, dose level Low) was 0%, the Fbg (60 mg/kg, 3 h, dose level Low) was 294.6 mg/dL and the Ht (60 mg/kg, 3 h, dose level Low) was 39.3%. The Lym (60 mg/kg, 3 h, dose level Low) was 73.8%, the MCH (60 mg/kg, 3 h, dose level Low) was 21.4 pg and the MCHC (60 mg/kg, 3 h, dose level Low) was 33.7%. It also gave an MCV (60 mg/kg, 3 h, dose level Low) of 63.8 fL, a Mono (60 mg/kg, 3 h, dose level Low) of 2.2% and a Neu (60 mg/kg, 3 h, dose level Low) of 22.6%. For the same compound, the PT (60 mg/kg, 3 h, dose level Low) was 15.3 s, the RBC (60 mg/kg, 3 h, dose level Low) was 618.2 x10_4/ul and the Ret (60 mg/kg, 3 h, dose level Low) was 7.9%. For the same compound, the WBC (60 mg/kg, 3 h, dose level Low) was 101.5 x10_2/uL, the KIDNEY_L (60 mg/kg, 3 h, dose level Low) was 0.9 g and the KIDNEY_R (60 mg/kg, 3 h, dose level Low) was 0.9 g. The KIDNEY_TOTAL (60 mg/kg, 3 h, dose level Low) was 1.7 g, the LIVER (60 mg/kg, 3 h, dose level Low) was 9.2 g and the ALP (60 mg/kg, 3 h, dose level Low) was 1434.6 IU/L. The ALT (60 mg/kg, 3 h, dose level Low) was 47.8 IU/L, the AST (60 mg/kg, 3 h, dose level Low) was 79.4 IU/L and the CRE (60 mg/kg, 3 h, dose level Low) was 0.2 mg/dL. The DBIL (60 mg/kg, 3 h, dose level Low) was 0.002 mg/dL, the GLC (60 mg/kg, 3 h, dose level Low) was 177 mg/dL and the IP (60 mg/kg, 3 h, dose level Low) was 8.4 mg/dL. For the same compound, the K (60 mg/kg, 3 h, dose level Low) was 4.1 meq/L, the LDH (60 mg/kg, 3 h, dose level Low) was 256 IU/L and the Na (60 mg/kg, 3 h, dose level Low) was 141.2 meq/L. The PL (60 mg/kg, 3 h, dose level Low) was 144.8 mg/dL, the RALB (60 mg/kg, 3 h, dose level Low) was 3 g/dL and the TBIL (60 mg/kg, 3 h, dose level Low) was 0.028 mg/dL. It also gave a TC (60 mg/kg, 3 h, dose level Low) of 85.2 mg/dL, a TG (60 mg/kg, 3 h, dose level Low) of 64.2 mg/dL and a TP (60 mg/kg, 3 h, dose level Low) of 5.4 g/dL. It also gave a gamma-GTP (60 mg/kg, 3 h, dose level Low) of 1.4 IU/L, a TERMINAL_BW (60 mg/kg, 6 h, dose level Low) of 205.3 g and an APTT (60 mg/kg, 6 h, dose level Low) of 23.2 s. For the same compound, the Bas (60 mg/kg, 6 h, dose level Low) was 0%, the Eos (60 mg/kg, 6 h, dose level Low) was 1% and the Fbg (60 mg/kg, 6 h, dose level Low) was 292.4 mg/dL. It also gave a Hb (60 mg/kg, 6 h, dose level Low) of 13.4 g/dL, a Ht (60 mg/kg, 6 h, dose level Low) of 39.3% and a Lym (60 mg/kg, 6 h, dose level Low) of 72.2%. The MCH (60 mg/kg, 6 h, dose level Low) was 21.6 pg, the MCHC (60 mg/kg, 6 h, dose level Low) was 34% and the MCV (60 mg/kg, 6 h, dose level Low) was 63.5 fL. It also gave a Mono (60 mg/kg, 6 h, dose level Low) of 2.6%, a PT (60 mg/kg, 6 h, dose level Low) of 16 s and a Plat (60 mg/kg, 6 h, dose level Low) of 116.1 x10_4/uL. For the same compound, the RBC (60 mg/kg, 6 h, dose level Low) was 619.4 x10_4/ul, the Ret (60 mg/kg, 6 h, dose level Low) was 8% and the WBC (60 mg/kg, 6 h, dose level Low) was 76.4 x10_2/uL. For the same compound, the KIDNEY_L (60 mg/kg, 6 h, dose level Low) was 0.9 g, the KIDNEY_R (60 mg/kg, 6 h, dose level Low) was 1 g and the KIDNEY_TOTAL (60 mg/kg, 6 h, dose level Low) was 1.9 g. It also gave an LIVER (60 mg/kg, 6 h, dose level Low) of 8.8 g, an ALP (60 mg/kg, 6 h, dose level Low) of 1432.6 IU/L and an ALT (60 mg/kg, 6 h, dose level Low) of 45 IU/L. The AST (60 mg/kg, 6 h, dose level Low) was 79.6 IU/L, the CRE (60 mg/kg, 6 h, dose level Low) was 0.1 mg/dL and the DBIL (60 mg/kg, 6 h, dose level Low) was 0.004 mg/dL. For the same compound, the GLC (60 mg/kg, 6 h, dose level Low) was 174.8 mg/dL, the IP (60 mg/kg, 6 h, dose level Low) was 9.6 mg/dL and the K (60 mg/kg, 6 h, dose level Low) was 4.5 meq/L. For the same compound, the LDH (60 mg/kg, 6 h, dose level Low) was 256.6 IU/L, the Na (60 mg/kg, 6 h, dose level Low) was 140 meq/L and the PL (60 mg/kg, 6 h, dose level Low) was 130.4 mg/dL. It also gave an RALB (60 mg/kg, 6 h, dose level Low) of 2.9 g/dL, a TBIL (60 mg/kg, 6 h, dose level Low) of 0.032 mg/dL and a TC (60 mg/kg, 6 h, dose level Low) of 72.6 mg/dL. It also gave a TG (60 mg/kg, 6 h, dose level Low) of 56 mg/dL, a TP (60 mg/kg, 6 h, dose level Low) of 5.1 g/dL and a gamma-GTP (60 mg/kg, 6 h, dose level Low) of 1.2 IU/L. For the same compound, the TERMINAL_BW (60 mg/kg, 9 h, dose level Low) was 199.8 g, the Bas (60 mg/kg, 9 h, dose level Low) was 0% and the Eos (60 mg/kg, 9 h, dose level Low) was 0.6%. The Fbg (60 mg/kg, 9 h, dose level Low) was 275 mg/dL, the Hb (60 mg/kg, 9 h, dose level Low) was 12.8 g/dL and the Ht (60 mg/kg, 9 h, dose level Low) was 38.1%. It also gave a Lym (60 mg/kg, 9 h, dose level Low) of 76.6%, an MCH (60 mg/kg, 9 h, dose level Low) of 21.5 pg and an MCHC (60 mg/kg, 9 h, dose level Low) of 33.6%. For the same compound, the MCV (60 mg/kg, 9 h, dose level Low) was 64.1 fL, the Mono (60 mg/kg, 9 h, dose level Low) was 2.6% and the Neu (60 mg/kg, 9 h, dose level Low) was 19.2%. It also gave a PT (60 mg/kg, 9 h, dose level Low) of 15.8 s, a Plat (60 mg/kg, 9 h, dose level Low) of 116.8 x10_4/uL and an RBC (60 mg/kg, 9 h, dose level Low) of 594.6 x10_4/ul. It also gave a Ret (60 mg/kg, 9 h, dose level Low) of 8.2%, a WBC (60 mg/kg, 9 h, dose level Low) of 66.8 x10_2/uL and a KIDNEY_L (60 mg/kg, 9 h, dose level Low) of 1 g. It also gave a KIDNEY_R (60 mg/kg, 9 h, dose level Low) of 1 g, a KIDNEY_TOTAL (60 mg/kg, 9 h, dose level Low) of 1.9 g and an LIVER (60 mg/kg, 9 h, dose level Low) of 8.2 g. The ALP (60 mg/kg, 9 h, dose level Low) was 1788.8 IU/L, the ALT (60 mg/kg, 9 h, dose level Low) was 40.8 IU/L and the AST (60 mg/kg, 9 h, dose level Low) was 72.4 IU/L. It also gave a CRE (60 mg/kg, 9 h, dose level Low) of 0.1 mg/dL, a DBIL (60 mg/kg, 9 h, dose level Low) of 0.006 mg/dL and a GLC (60 mg/kg, 9 h, dose level Low) of 174.8 mg/dL. The K (60 mg/kg, 9 h, dose level Low) was 4.4 meq/L, the LDH (60 mg/kg, 9 h, dose level Low) was 208.4 IU/L and the Na (60 mg/kg, 9 h, dose level Low) was 139.8 meq/L. For the same compound, the RALB (60 mg/kg, 9 h, dose level Low) was 2.9 g/dL, the TBIL (60 mg/kg, 9 h, dose level Low) was 0.026 mg/dL and the TC (60 mg/kg, 9 h, dose level Low) was 67 mg/dL. The TG (60 mg/kg, 9 h, dose level Low) was 58.6 mg/dL, the TP (60 mg/kg, 9 h, dose level Low) was 5.3 g/dL and the gamma-GTP (60 mg/kg, 9 h, dose level Low) was 1 IU/L. For the same compound, the TERMINAL_BW (60 mg/kg, 24 h, dose level Low) was 206.8 g, the APTT (60 mg/kg, 24 h, dose level Low) was 21.7 s and the Bas (60 mg/kg, 24 h, dose level Low) was 0%. The Eos (60 mg/kg, 24 h, dose level Low) was 1%, the Fbg (60 mg/kg, 24 h, dose level Low) was 309.8 mg/dL and the Ht (60 mg/kg, 24 h, dose level Low) was 40.6%. For the same compound, the Lym (60 mg/kg, 24 h, dose level Low) was 78.2%, the MCH (60 mg/kg, 24 h, dose level Low) was 21.6 pg and the MCHC (60 mg/kg, 24 h, dose level Low) was 34.1%. The MCV (60 mg/kg, 24 h, dose level Low) was 63.2 fL, the Mono (60 mg/kg, 24 h, dose level Low) was 3.2% and the Neu (60 mg/kg, 24 h, dose level Low) was 17%. The PT (60 mg/kg, 24 h, dose level Low) was 16.5 s, the Plat (60 mg/kg, 24 h, dose level Low) was 112 x10_4/uL and the RBC (60 mg/kg, 24 h, dose level Low) was 643.6 x10_4/ul. The Ret (60 mg/kg, 24 h, dose level Low) was 6.8%, the WBC (60 mg/kg, 24 h, dose level Low) was 119.2 x10_2/uL and the KIDNEY_L (60 mg/kg, 24 h, dose level Low) was 0.9 g. The KIDNEY_R (60 mg/kg, 24 h, dose level Low) was 0.9 g, the KIDNEY_TOTAL (60 mg/kg, 24 h, dose level Low) was 1.8 g and the LIVER (60 mg/kg, 24 h, dose level Low) was 9.8 g. For the same compound, the ALP (60 mg/kg, 24 h, dose level Low) was 1457.4 IU/L, the ALT (60 mg/kg, 24 h, dose level Low) was 46.6 IU/L and the AST (60 mg/kg, 24 h, dose level Low) was 76.8 IU/L. It also gave a CRE (60 mg/kg, 24 h, dose level Low) of 0.2 mg/dL, a DBIL (60 mg/kg, 24 h, dose level Low) of 0 mg/dL and a GLC (60 mg/kg, 24 h, dose level Low) of 183.6 mg/dL. The IP (60 mg/kg, 24 h, dose level Low) was 7.7 mg/dL, the K (60 mg/kg, 24 h, dose level Low) was 4.5 meq/L and the LDH (60 mg/kg, 24 h, dose level Low) was 274 IU/L. The Na (60 mg/kg, 24 h, dose level Low) was 141.6 meq/L, the PL (60 mg/kg, 24 h, dose level Low) was 142.2 mg/dL and the RALB (60 mg/kg, 24 h, dose level Low) was 3 g/dL. It also gave a TBIL (60 mg/kg, 24 h, dose level Low) of 0.004 mg/dL and a TC (60 mg/kg, 24 h, dose level Low) of 76.6 mg/dL.
